Calls of active or inactive are those of the source. The rule behind the calls is not given here.
Experiments:
Liver [1] = test: Drugmetabolism in mouse liver microsomes assessed as metabolite formation; assay type: ADME, Microsome
[2] = Kinetic aqueous solubility of the compound in pH 6.8; assay type: physicochemical; details: read-out: Kinetic_solubility
[3] = Protein binding in human plasma assessed as unbound fraction at 2 uM by rapid equilibrium dialysis method; assay type: ADME, cell-free
[4] = Kinetic solubility of the compound at pH 1.5 by shake flask method; assay type: physicochemical; details: buffer, read-out: Kinetic_solubility
[5] = Clearance in Sprague-Dawley rat assessed as hepatic blood flow at 1 mg/kg, iv; assay type: ADME, organism-based, Liver; details: in vivo
Aurora kinase A = Aurora kinase A (Homo sapiens, UniProt O14965); test: Binding affinity to wild-type human partial length AURKA (E122 to K401 residues) expressed in mammalian expression system by Kinomescan method
[6] = molecular target: Cyclin-dependent kinase-like 2 (Homo sapiens, UniProt Q92772); test: Binding affinity to wild-type human partial length CDKL2 (M1 to D327 residues) expressed in bacterial expression system by Kinomescan method
[7] = molecular target: Mitogen-activated protein kinase kinase kinase 13 (Homo sapiens, UniProt O43283); test: Binding affinity to wild-type human full length LZK (M1 to W966 residues) expressed in mammalian expression system by Kinomescan method
[8] = molecular target: Dual specificity mitogen-activated protein kinase kinase 2 (Homo sapiens, UniProt P36507); test: Binding affinity to wild-type human full length MEK2 (M1 to V400 residues) expressed in mammalian expression system by Kinomescan method
Chain of Dual specificity mitogen-activated protein kinase kinase 2 (P36507 whole entry, the tested form may be a part): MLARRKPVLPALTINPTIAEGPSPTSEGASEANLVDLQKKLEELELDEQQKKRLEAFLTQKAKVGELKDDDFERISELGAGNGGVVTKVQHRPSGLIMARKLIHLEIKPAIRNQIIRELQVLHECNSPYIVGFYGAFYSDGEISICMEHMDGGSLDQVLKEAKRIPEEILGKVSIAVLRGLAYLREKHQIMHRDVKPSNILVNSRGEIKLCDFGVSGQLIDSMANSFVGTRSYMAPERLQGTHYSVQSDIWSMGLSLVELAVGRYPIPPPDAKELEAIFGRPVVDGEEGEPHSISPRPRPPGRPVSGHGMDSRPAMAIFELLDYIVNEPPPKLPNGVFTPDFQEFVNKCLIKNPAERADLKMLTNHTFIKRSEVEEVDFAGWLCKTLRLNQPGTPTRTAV

[9] = molecular target: Phosphatidylinositol 4-phosphate 5-kinase type-1 gamma (Homo sapiens, UniProt O60331); test: Binding affinity to wild-type human partial length PIP5K1C (M1 to T668 residues) expressed in mammalian expression system by Kinomescan method
Chain of Phosphatidylinositol 4-phosphate 5-kinase type-1 gamma (O60331 whole entry, the tested form may be a part): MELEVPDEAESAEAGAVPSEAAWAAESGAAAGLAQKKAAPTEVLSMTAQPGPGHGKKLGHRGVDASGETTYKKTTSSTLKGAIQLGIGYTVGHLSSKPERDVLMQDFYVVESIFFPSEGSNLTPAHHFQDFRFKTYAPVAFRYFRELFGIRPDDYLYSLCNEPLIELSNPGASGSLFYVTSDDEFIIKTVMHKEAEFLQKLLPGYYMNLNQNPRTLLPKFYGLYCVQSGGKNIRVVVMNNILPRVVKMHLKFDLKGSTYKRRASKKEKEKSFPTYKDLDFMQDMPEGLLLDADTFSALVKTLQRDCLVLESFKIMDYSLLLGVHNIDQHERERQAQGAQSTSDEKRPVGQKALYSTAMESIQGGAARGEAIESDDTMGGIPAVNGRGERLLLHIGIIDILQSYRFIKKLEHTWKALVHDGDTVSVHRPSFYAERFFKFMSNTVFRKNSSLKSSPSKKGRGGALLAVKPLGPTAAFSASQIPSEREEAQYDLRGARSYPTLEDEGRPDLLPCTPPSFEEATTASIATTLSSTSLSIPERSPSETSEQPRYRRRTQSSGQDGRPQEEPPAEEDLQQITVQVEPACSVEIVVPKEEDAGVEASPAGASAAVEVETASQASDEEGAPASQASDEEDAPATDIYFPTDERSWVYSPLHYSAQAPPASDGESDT

[10] = Volume of distribution at steady state in Spargue-Dawley rat at 5 mg/kg, po; assay type: ADME, organism-based; details: in vivo
[11] = Volume of distribution at steady state in cynomolgus monkey at 5 mg/kg, po; assay type: ADME, organism-based, Macaca fascicularis; details: in vivo
[12] = molecular target: Voltage-gated inwardly rectifying potassium channel KCNH2 (Homo sapiens, UniProt Q12809); test: Inhibition of human ERG by patch clamp method; assay type: toxicity
Chain of Voltage-gated inwardly rectifying potassium channel KCNH2 (Q12809 whole entry): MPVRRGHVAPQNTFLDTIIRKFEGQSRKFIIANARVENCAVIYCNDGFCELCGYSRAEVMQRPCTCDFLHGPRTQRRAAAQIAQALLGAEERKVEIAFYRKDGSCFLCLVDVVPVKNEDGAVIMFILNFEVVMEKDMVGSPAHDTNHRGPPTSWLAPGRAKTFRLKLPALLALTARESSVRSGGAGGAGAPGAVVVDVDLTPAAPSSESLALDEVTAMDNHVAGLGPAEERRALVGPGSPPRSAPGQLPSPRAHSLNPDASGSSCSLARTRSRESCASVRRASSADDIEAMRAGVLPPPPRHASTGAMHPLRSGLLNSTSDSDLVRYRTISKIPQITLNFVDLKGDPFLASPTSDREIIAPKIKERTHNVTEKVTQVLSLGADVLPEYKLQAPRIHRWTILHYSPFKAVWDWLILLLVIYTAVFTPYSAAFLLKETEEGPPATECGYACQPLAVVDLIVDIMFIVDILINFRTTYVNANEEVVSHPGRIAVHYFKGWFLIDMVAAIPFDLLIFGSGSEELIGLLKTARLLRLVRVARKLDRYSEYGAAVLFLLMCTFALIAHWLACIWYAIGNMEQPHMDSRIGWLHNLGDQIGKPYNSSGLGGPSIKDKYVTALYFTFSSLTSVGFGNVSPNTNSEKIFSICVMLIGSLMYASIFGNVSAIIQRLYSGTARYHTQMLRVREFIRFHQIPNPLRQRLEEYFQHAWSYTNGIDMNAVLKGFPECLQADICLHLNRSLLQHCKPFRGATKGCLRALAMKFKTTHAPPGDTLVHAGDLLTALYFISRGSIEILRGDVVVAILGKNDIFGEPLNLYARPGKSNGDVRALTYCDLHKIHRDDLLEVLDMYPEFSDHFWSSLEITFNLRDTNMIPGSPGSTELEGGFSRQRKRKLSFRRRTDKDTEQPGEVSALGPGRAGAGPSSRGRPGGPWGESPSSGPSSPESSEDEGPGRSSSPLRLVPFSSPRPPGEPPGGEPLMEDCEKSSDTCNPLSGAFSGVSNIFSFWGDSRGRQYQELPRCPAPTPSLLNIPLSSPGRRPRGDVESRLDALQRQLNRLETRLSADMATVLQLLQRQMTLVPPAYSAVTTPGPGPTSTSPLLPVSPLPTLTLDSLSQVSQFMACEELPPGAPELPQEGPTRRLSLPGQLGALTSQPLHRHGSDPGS

[13] = molecular target: Voltage-dependent L-type calcium channel subunit alpha-1C (Homo sapiens, UniProt Q13936); test: Inhibition of human Cav1.2; assay type: toxicity
[14] = Hepatotoxicity in rat primary cells assessed as change in GSH level for 10 days; assay type: toxicity, cell-based, Hepatocyte; details: hepatocytes, 240 h, time 10 day
[15] = Hepatotoxicity in rat primary cells assessed as change in urea level for 10 days; assay type: toxicity, cell-based, Hepatocyte; details: hepatocytes, 240 h, time 10 day
[16] = Hepatotoxicity in rat primary cells assessed as change in albumin level for 10 days; assay type: toxicity, cell-based, Hepatocyte; details: hepatocytes, 240 h, time 10 day
[17] = molecular target: T1, Sodium channel protein type 5 subunit alpha (Homo sapiens, UniProt Q14524); test: Inhibition of tonic human Nav1.5; assay type: toxicity
T1 sequence (Q14524 whole entry): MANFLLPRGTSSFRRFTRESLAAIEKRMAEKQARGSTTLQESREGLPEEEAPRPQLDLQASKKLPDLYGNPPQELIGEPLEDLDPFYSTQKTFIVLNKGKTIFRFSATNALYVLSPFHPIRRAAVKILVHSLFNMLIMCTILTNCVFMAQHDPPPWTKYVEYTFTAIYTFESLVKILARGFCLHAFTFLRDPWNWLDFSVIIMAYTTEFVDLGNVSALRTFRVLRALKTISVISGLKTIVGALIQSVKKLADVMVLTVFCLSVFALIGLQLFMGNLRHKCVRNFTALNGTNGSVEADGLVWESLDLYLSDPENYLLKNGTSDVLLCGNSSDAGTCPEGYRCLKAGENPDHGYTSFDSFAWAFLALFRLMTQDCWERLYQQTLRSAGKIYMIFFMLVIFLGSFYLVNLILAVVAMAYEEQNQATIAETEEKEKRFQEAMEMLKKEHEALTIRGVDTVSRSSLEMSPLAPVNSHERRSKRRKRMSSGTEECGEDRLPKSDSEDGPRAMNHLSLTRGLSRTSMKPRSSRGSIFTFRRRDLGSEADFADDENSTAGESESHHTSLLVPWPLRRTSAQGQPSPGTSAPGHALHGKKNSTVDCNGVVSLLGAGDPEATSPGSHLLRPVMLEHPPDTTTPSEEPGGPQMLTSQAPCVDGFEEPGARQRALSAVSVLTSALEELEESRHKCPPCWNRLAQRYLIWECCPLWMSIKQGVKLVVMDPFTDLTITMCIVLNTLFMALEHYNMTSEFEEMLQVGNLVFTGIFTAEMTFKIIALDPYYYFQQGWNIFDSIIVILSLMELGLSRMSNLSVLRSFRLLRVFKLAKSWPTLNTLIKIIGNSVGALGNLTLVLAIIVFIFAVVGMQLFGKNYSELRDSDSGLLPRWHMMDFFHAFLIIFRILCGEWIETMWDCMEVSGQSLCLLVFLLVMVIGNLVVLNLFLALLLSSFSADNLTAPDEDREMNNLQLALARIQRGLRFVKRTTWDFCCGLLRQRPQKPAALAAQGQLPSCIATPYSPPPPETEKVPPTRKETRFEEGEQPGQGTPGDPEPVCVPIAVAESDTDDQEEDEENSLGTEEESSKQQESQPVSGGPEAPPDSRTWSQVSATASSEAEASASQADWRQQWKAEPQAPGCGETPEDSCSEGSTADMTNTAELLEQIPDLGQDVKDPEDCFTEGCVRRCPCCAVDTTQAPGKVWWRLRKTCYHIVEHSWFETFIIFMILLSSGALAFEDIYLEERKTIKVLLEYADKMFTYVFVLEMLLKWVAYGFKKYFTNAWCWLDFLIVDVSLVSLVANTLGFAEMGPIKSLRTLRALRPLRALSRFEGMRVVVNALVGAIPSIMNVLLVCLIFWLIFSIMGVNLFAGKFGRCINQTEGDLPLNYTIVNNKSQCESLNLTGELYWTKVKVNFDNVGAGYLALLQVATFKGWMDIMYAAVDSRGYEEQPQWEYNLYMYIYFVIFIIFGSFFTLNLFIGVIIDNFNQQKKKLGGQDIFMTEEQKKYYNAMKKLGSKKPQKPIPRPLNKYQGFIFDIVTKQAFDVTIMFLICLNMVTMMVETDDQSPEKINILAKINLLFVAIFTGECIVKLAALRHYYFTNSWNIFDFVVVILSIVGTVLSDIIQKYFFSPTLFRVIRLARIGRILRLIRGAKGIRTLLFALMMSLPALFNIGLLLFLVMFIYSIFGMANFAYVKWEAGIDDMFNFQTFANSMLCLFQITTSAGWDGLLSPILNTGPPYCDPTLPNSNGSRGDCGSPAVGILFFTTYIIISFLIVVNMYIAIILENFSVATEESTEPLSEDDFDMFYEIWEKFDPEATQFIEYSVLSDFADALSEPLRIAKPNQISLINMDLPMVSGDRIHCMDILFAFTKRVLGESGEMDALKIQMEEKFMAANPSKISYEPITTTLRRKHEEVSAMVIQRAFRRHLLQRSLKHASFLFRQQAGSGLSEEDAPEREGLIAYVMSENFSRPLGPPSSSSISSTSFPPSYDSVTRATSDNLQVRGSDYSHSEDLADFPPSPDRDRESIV

[18] = molecular target: T1, Sodium channel protein type 5 subunit alpha; test: Inhibition of phasic human Nav1.5; assay type: toxicity
[19] = In vivo toxicity in Sprague-Dawley rat assessed as compound related toxicity at 500 mg/kg after 28 days; assay type: organism-based; details: 672 h, time 28 day
[20] = In vivo toxicity in Sprague-Dawley rat assessed as compound related pathology findings at 500 mg/kg after 28 days; assay type: organism-based; details: 672 h, time 28 day
Cynomolgus monkey [21] = test: In vivo toxicity in cynomolgus monkey assessed as compound related toxicity at 250 mg/kg after 28 days; assay type: organism-based, Macaca fascicularis; details: 672 h, time 28 day
Cynomolgus monkey [22] = test: In vivo toxicity in cynomolgus monkey assessed as compound related ECG findings at 250 mg/kg after 28 days; assay type: organism-based, Macaca fascicularis; details: 672 h, time 28 day
[23] = molecular target: Early activation antigen CD69 (Homo sapiens, UniProt Q07108); test: Inhibition of CD69 (unknown origin) assessed as reduction in BCR mediated B cell activation; assay type: cell-based
Chain of Early activation antigen CD69 (Q07108 whole entry): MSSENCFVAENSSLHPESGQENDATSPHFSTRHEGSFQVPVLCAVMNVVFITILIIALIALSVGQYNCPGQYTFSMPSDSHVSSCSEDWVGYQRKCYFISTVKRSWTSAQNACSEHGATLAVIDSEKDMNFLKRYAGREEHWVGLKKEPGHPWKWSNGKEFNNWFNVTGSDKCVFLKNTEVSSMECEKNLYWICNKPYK

CD63 antigen = CD63 antigen (Homo sapiens, UniProt P08962); test: Inhibition of CD63 (unknown origin) assessed as FcepsilonR induced basophil activation
Chain of CD63 antigen (P08962 whole entry): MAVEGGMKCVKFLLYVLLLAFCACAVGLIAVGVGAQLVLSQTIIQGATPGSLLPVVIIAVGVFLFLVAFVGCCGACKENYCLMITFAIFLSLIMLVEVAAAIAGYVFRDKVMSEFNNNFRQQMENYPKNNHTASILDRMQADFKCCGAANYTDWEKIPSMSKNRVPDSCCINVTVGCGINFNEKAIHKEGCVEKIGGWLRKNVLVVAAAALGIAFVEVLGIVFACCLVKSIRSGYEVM

[24] = molecular target: Toll-like receptor 9 (Homo sapiens) (UniProt Q9NR96); test: Inhibition of TLR9 in CpG-B stimulated human PBMC at >10 uM; assay type: cell-based; details: dose microM >10
[25] = molecular target: Tumor necrosis factor receptor superfamily member 5 (Homo sapiens) (UniProt P25942); test: Inhibition of CD40 in IL-4/[…] stimulated human PBMC at >10 uM; assay type: cell-based; details: dose microM >10
Chain of Tumor necrosis factor receptor superfamily member 5 (Homo sapiens) (P25942 whole entry): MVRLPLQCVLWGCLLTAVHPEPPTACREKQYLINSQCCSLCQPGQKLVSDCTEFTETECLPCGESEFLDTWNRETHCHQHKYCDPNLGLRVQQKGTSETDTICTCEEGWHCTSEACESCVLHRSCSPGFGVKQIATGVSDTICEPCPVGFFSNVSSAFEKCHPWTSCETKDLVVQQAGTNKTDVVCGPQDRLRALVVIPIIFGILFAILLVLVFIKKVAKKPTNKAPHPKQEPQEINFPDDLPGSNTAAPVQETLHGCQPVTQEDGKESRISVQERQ

[26] = In vivo inhibition of BTK-dependent B cell activation in C57BL/6 mouse immunized with NP-Ficoll assessed as reduction in anti-NP IgM antibody titer at 30 mg/kg, po BID dosed for 10 days; assay type: functional; set-up: scale not given: the % may be the effect or the level left; details: time 10 day
[27] = In vivo inhibition of BTK-dependent B cell activation in C57BL/6 mouse immunized with NP-Ficoll assessed as reduction in anti-NP IgM antibody titer at 1 mg/kg, po BID dosed for 10 days; assay type: functional; set-up: scale not given: the % may be the effect or the level left; details: time 10 day
[28] = In vivo inhibition of BTK-dependent B cell activation in C57BL/6 mouse immunized with NP-Ficoll assessed as reduction in anti-NP IgM antibody titer at 0.3 mg/kg, po BID dosed for 10 days; assay type: functional; set-up: scale not given: the % may be the effect or the level left; details: time 10 day
[29] = In vivo inhibition of BTK-dependent B cell activation in C57BL/6 mouse immunized with NP-Ficoll assessed as reduction in anti-NP IgM antibody titer at 0.03 mg/kg, po BID dosed for 10 days; assay type: functional; set-up: scale not given: the % may be the effect or the level left; details: time 10 day
[30] = In vivo inhibition of BTK-dependent B cell activation in C57BL/6 mouse immunized with NP-Ficoll assessed as reduction in anti-NP IgM antibody titer; assay type: toxicity, organism-based
[31] = Apparent permeability across apical to basolateral side in human Caco2 cells; assay type: ADME, cell-based; details: Caco-2
[32] = In vivo toxicity in Sprague-Dawley rat assessed as NOAEL after 28 days; assay type: organism-based; details: time 28 day
[33] = Apparent permeability across basolateral to apical side in human Caco2 cells; assay type: ADME, cell-based; details: Caco-2
[34] = Protein binding in human plasma assessed as unbound fraction; assay type: ADME, cell-free
[35] = Protein binding in monkey plasma assessed as unbound fraction; assay type: ADME, cell-free, Macaca mulatta; details: rhesus monkey
Cytochrome P450 3A4 = Cytochrome P450 3A4 (Homo sapiens, UniProt P08684); test: Inhibition of CYP3A4 in human liver microsomes at 10 to 50 uM; assay type: ADME; details: dose 10-50 µM
Cytochrome P450 2D6 = Cytochrome P450 2D6 (Homo sapiens, UniProt P10635); test: Inhibition of CYP2D6 in human liver microsomes at 10 to 50 uM; assay type: ADME; details: dose 10-50 µM
Cytochrome P450 2C9 = Cytochrome P450 2C9 (Homo sapiens, UniProt P11712); test: Inhibition of CYP2C9 in human liver microsomes at 10 to 50 uM; assay type: ADME; details: dose 10-50 µM
Cytochrome P450 2C19 = Cytochrome P450 2C19 (Homo sapiens, UniProt P33261); test: Inhibition of CYP2C19 in human liver microsomes at 10 to 50 uM; assay type: ADME; details: dose 10-50 µM
[36] = Protein binding in rat plasma assessed as unbound fraction; assay type: ADME, cell-free
Liver [37] = test: Drugmetabolism in rat liver microsomes assessed as metabolite formation; assay type: ADME, Microsome
Liver [38] = test: Drugmetabolism in dog liver microsomes assessed as metabolite formation; assay type: ADME, Canis lupus familiaris, Microsome
[39] = Drugmetabolism in cynomolgus monkey liver microsomes assessed as metabolite formation; assay type: ADME, Macaca fascicularis, Microsome
Liver [40] = test: Drugmetabolism in human liver microsomes assessed as metabolite formation; assay type: ADME, Microsome
[41] = Drugmetabolism in rat hepatocytes assessed as metabolite formation; assay type: ADME, cell-based, Hepatocyte
[42] = Drugmetabolism in dog hepatocytes assessed as metabolite formation; assay type: ADME, cell-based, Canis lupus familiaris, Hepatocyte
[43] = Drugmetabolism in cynomolgus monkey hepatocytes assessed as metabolite formation; assay type: ADME, cell-based, Macaca fascicularis, Hepatocyte

Drug metabolism (Liver [1]): Metabolite_Notdetected
solubility kinetic [2]: > 50 µg/mL
fraction unbound at 2 µM [3]: 0.26
solubility kinetic [4]: > 50 µg/mL
QH [5]: 22%
Kd (Aurora kinase A): 660 nM
Kd [6]: 240 nM
Kd [7]: > 3000 nM
Kd [8]: 200 nM
Kd [9]: 420 nM
Vdss [10]: 0.4 L/kg
Vdss [11]: 0.7 L/kg
IC50 [23]: 71 nM
IC50 (CD63 antigen): 82 nM
inhibition [24]: inactive
Papp A→B [31]: 1.78 ×10⁻⁶ cm/s
Papp B→A [33]: 37.6 ×10⁻⁶ cm/s
fraction unbound [34]: 0.26
fraction unbound [35]: 0.19
inhibition (INH) (Cytochrome P450 3A4): Not Active
inhibition (INH) (Cytochrome P450 2D6): Not Active
inhibition (INH) (Cytochrome P450 2C9): Not Active
inhibition (INH) (Cytochrome P450 2C19): Not Active
fraction unbound [36]: 0.1
Drug metabolism (Liver [37]): Metabolite_Notdetected
Drug metabolism (Liver [38]): Metabolite_Notdetected
Drug metabolism [39]: Metabolite_Notdetected
Drug metabolism (Liver [40]): Metabolite_Notdetected
Drug metabolism [41]: Metabolite_Notdetected
Drug metabolism [42]: Metabolite_Notdetected
Drug metabolism [43]: Metabolite_Notdetected
SMILES: Cn1cc(Nc2nccc(-c3ccc4c(c3)CN(C3COC3)CC[C@H]4NC(=O)c3cn(C(C)(C)C)nn3)n2)cn1 [BIIB-091]
IC50 [12]: > 25000 nM
IC50 [13]: > 25000 nM
Activity [14]: Non-Toxic
Activity [15]: Non-Toxic
Activity [16]: Non-Toxic
IC50 [17]: > 25000 nM
IC50 [18]: > 25000 nM
Activity [19]: Non-Toxic
Activity [20]: Non-Toxic
Activity (Cynomolgus monkey [21]): Non-Toxic
Activity (Cynomolgus monkey [22]): Non-Toxic
inhibition [25]: inactive
Activity [26]: 88%
Activity [27]: 59%
Activity [28]: 59%
Activity [29]: 34%
ED50 [30]: 1.95 mg/kg
NOAEL at 672 h [32]: 500 mg/kg

From ChEMBL document CHEMBL5042486, “Discovery and Preclinical Characterization of BIIB091, a Reversible, Selective BTK Inhibitor for the Treatment of Multiple Sclerosis” (J Med Chem, 2022)
